Test results published in publication PMC10961402, “Safety, tolerability, pharmacokinetics and pharmacokinetic-pharmacodynamic modeling of cetagliptin in patients with type 2 diabetes mellitus” (Frontiers in Endocrinology, 2024).
Read-outs that look alike come from different tables or passages of the source.

What was measured:
[1] = biological target: T1, plasma DPP-4 activity (Homo sapiens, UniProt P27487); test: Plasma DPP-4 inhibition relative to baseline (fluorescent method, Gly-Pro-7-amide-4-methylcoumarin); type: in vivo; details: patients with T2DM; for DPP-4 inhibition TRmax,ss / DPP-4 inhibition TRmax: median (range)
T1 construct: from tissue; host or cells: human plasma (K2-EDTA blood from T2DM patients)
Procedure: Blood samples for DPP-4 activity determination were collected at the same time points as for PK. 1 mL blood samples were collected into blood-collecting tubes containing K2-EDTA. The tubes were placed on ice until centrifugation. The blood samples were centrifuged at 2-8°C, 1500 g for 10 min within 1 hour after blood collection. After centrifugation, the supernatant were evenly divided into two aliquots and stored at -80 ± 10°C. The plasma DPP-4 activity was determined using a fluorescent method with the substrate Gly-Pro-7-amide-4-methylcoumarin. A range of 3-400 µM was covered by the linear calibration.
The degree of inhibition of DPP-4 enzyme activity relative to baseline (DPP-4 inhibition, %) after administration was calculated as the following equation:
DPP−4 inhibition (%)=(1−DPP−4 activity/DPP−4 activity,Baseline)×100

[2] = tested on: glucose, insulin, C-peptide, and glucagon; test: Oral glucose tolerance test (OGTT): glucose, insulin, C-peptide, glucagon; type: in vivo, human; set-up: change of AUEC0-3 h relative to baseline for insulin (OGTT) / change of AUEC0-3 h relative to baseline for C-peptide (OGTT) / change of AUEC0-3 h relative to baseline for glucagon (OGTT) / C-peptide AUEC0-t (OGTT) / glucagon AUEC0-t (OGTT) / insulin AUEC0-t (OGTT): unit not given here; details: patients with T2DM; for change of AUEC0-3 h relative to baseline for C-peptide (OGTT) / change of AUEC0-3 h relative to baseline for glucagon (OGTT) / change of AUEC0-3 h relative to baseline for insulin (OGTT) / change of AUEC0-3 h relative to baseline for plasma glucose (OGTT): day 15 vs day -1
Procedure: To assess the impact of investigational products on glucose, insulin, C-peptide, and glucagon, OGTT tests were conducted on day -1 and day 15 following a fasting period of more than 8 hours. Subjects received a 75 g oral glucose dose and blood samples (1.5 mL for glucose, 3.5 mL for insulin and C-peptide, 2 mL for glucagon) were collected at 0, 0.167, 0.5, 1, 1.5, 2, and 3 h after ingestion of glucose. The PD parameters (AUEC0-t) for glucose, insulin, C-peptide, and glucagon were calculated by using drug effect module of non-compartmental method with Phoenix WinNonlin.

[3] = Safety and tolerability assessments (adverse events); type: in vivo, human; details: patients with T2DM
Procedure: Safety and tolerability were evaluated by monitoring adverse events (AEs), laboratory tests (including blood routine, urine routine, stool routine, blood biochemical test and coagulation function), vital signs, physical examination, 12-lead electrocardiogram and other indicators. AEs were monitored and collected throughout the study. Descriptive analysis of the type and intensity of AEs were conducted according to NCICTC AE5.0.

[4] = set-up: method as in PMID 34965609; details: healthy subjects, cited from earlier work
[5] = tested on: serum DPP-4 activity; set-up: method as in PMID 22686547; details: Zucker Diabetic Fatty rats; preclinical studies (data not published); cited from earlier work
[6] = tested on: plasma active GLP-1; set-up: method as in PMID 34965609; details: healthy subjects, cited from earlier work
[7] = 50 mg group, day -1 (baseline before dosing)
[8] = 100 mg group, day -1 (baseline before dosing)
[9] = day 15 after 50 mg once daily for 14 days
[10] = day 15 after 100 mg once daily for 14 days
[11] = cetagliptin group (50 or 100 mg, n=20) / sitagliptin group (100 mg, n=8), 14 days

T1 sequence (P27487 39-766 limits assumed): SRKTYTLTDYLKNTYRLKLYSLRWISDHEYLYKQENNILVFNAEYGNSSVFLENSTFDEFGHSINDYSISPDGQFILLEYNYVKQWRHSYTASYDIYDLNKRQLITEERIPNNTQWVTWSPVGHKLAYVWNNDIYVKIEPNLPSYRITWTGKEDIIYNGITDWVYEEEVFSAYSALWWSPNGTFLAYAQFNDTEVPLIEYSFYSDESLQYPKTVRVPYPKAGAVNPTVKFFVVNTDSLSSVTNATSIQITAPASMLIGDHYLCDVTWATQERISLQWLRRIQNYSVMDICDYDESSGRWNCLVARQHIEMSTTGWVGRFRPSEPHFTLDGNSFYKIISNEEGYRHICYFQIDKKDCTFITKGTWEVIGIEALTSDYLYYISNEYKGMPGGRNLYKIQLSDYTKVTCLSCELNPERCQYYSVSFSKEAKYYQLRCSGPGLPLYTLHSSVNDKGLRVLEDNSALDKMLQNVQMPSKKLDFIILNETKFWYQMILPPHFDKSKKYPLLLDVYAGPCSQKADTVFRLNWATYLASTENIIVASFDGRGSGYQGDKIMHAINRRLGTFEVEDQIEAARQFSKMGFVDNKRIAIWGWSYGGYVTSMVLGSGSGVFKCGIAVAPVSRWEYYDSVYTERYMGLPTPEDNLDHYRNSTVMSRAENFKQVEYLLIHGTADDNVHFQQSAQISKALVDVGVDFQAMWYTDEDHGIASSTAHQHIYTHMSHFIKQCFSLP

C[C@@H]1c2cnc(C(F)(F)F)n2CCN1C(=O)C[C@H](N)Cc1cc(F)c(F)cc1F.O=P(O)(O)O [Cetagliptin, cetagliptin]
accumulation ratio of AUEC0-24h of DPP-4 inhibition ([1]; 50 mg once daily): ~1
DPP-4 inhibition AUEC0-24h ([1]; 50 mg oral once daily, day 14): 2010 ± 54.1 h*%
DPP-4 inhibition Rmax,ss ([1]; 50 mg oral once daily, day 14): 89.47 ± 1.12%
DPP-4 inhibition Rmin,ss ([1]; 50 mg oral once daily, day 14): 77.24 ± 4.52%
DUR80% (duration for DPP-4 inhibition rate of >80%) ([1]; 50 mg oral once daily, day 14): 21.9 ± 7.05 h
E24h (DPP-4 inhibition at 24 h postdose) ([1]; 50 mg oral once daily, day 14): 78.43 ± 3.85%
DUR80% (duration for DPP-4 inhibition rate of >80%) ([1]; 50 mg oral once daily, day 14, listed as cetagliptin): 21.9 h
DPP-4 inhibition TRmax,ss ([1]; 50 mg oral once daily, day 14): 2.00 (0.500-6.00) h
DPP-4 inhibition AUEC0-24h ([1]; 50 mg oral, day 1): 1820 ± 77.9 h*%
DPP-4 inhibition Rmax ([1]; 50 mg oral, day 1): 86.39 ± 1.75%
DUR80% (duration for DPP-4 inhibition rate of >80%) ([1]; 50 mg oral, day 1): 8.39 ± 2.37 h
E24h (DPP-4 inhibition at 24 h postdose) ([1]; 50 mg oral, day 1): 68.75 ± 4.75%
DUR80% (duration for DPP-4 inhibition rate of >80%) ([1]; 50 mg oral, day 1, listed as cetagliptin): 8.39 h
DPP-4 inhibition TRmax ([1]; 50 mg oral, day 1): 2.00 (0.500-3.00) h
sustained DPP-4 inhibition (≥80%) compared with sitagliptin ([1]; 100 mg cetagliptin vs 100 mg sitagliptin, multiple administration): much longer
accumulation ratio of AUEC0-24h of DPP-4 inhibition ([1]; 100 mg once daily): ~1
DPP-4 inhibition AUEC0-24h ([1]; 100 mg oral once daily, day 14): 2090 ± 24.4 h*%
DPP-4 inhibition Rmax,ss ([1]; 100 mg oral once daily, day 14): 89.99 ± 0.91%
DPP-4 inhibition Rmin,ss ([1]; 100 mg oral once daily, day 14): 84.28 ± 1.61%
DUR80% (duration for DPP-4 inhibition rate of >80%) ([1]; 100 mg oral once daily, day 14): 32.3 ± 4.53 h
E24h (DPP-4 inhibition at 24 h postdose) ([1]; 100 mg oral once daily, day 14): 83.91 ± 1.39%
DUR80% (duration for DPP-4 inhibition rate of >80%) ([1]; 100 mg oral once daily, day 14, listed as cetagliptin): 32.3 h
DPP-4 inhibition TRmax,ss ([1]; 100 mg oral once daily, day 14): 2.00 (1.00-3.00) h
DPP-4 inhibition AUEC0-24h ([1]; 100 mg oral, day 1): 2000 ± 41.6 h*%
DPP-4 inhibition Rmax ([1]; 100 mg oral, day 1): 88.78 ± 1.04%
DUR80% (duration for DPP-4 inhibition rate of >80%) ([1]; 100 mg oral, day 1): 21.1 ± 3.42 h
E24h (DPP-4 inhibition at 24 h postdose) ([1]; 100 mg oral, day 1): 79.75 ± 2.63%
DUR80% (duration for DPP-4 inhibition rate of >80%) ([1]; 100 mg oral, day 1, listed as cetagliptin): 21.1 h
DPP-4 inhibition TRmax ([1]; 100 mg oral, day 1): 1.00 (1.00-3.00) h
C-peptide AUEC0-t (OGTT) [2, 7]: 4072.02 ± 1174.82
glucagon AUEC0-t (OGTT) [2, 7]: 469.51 ± 189.76
glucose AUEC0-t (OGTT) [2, 7]: 48.65 ± 5.34 mmol·h/L
insulin AUEC0-t (OGTT) [2, 7]: 431.53 ± 271.81
change of AUEC0-3 h relative to baseline for C-peptide (OGTT) ([2]; 50 mg once daily): 1851.30
change of AUEC0-3 h relative to baseline for glucagon (OGTT) ([2]; 50 mg once daily): -72.70
change of AUEC0-3 h relative to baseline for insulin (OGTT) ([2]; 50 mg once daily): 219.90
change of AUEC0-3 h relative to baseline for plasma glucose (OGTT) ([2]; 50 mg once daily): -4.97 mmol·h/L
C-peptide AUEC0-t (OGTT) [2, 8]: 6059.64 ± 1263.61
glucagon AUEC0-t (OGTT) [2, 8]: 503.79 ± 161.61
glucose AUEC0-t (OGTT) [2, 8]: 40.59 ± 2.87 mmol·h/L
insulin AUEC0-t (OGTT) [2, 8]: 716.44 ± 250.84
change of AUEC0-3 h relative to baseline for C-peptide (OGTT) ([2]; 100 mg once daily): 1761.48
change of AUEC0-3 h relative to baseline for glucagon (OGTT) ([2]; 100 mg once daily): -7.21
change of AUEC0-3 h relative to baseline for insulin (OGTT) ([2]; 100 mg once daily): 292.18
change of AUEC0-3 h relative to baseline for plasma glucose (OGTT) ([2]; 100 mg once daily): -2.76 mmol·h/L
C-peptide AUEC0-t (OGTT) [2, 9]: 5923.31 ± 2012.97
glucagon AUEC0-t (OGTT) [2, 9]: 396.81 ± 51.89
glucose AUEC0-t (OGTT) [2, 9]: 43.68 ± 8.04 mmol·h/L
insulin AUEC0-t (OGTT) [2, 9]: 651.43 ± 455.05
C-peptide AUEC0-t (OGTT) [2, 10]: 7821.13 ± 2023.09
glucagon AUEC0-t (OGTT) [2, 10]: 496.58 ± 158.93
glucose AUEC0-t (OGTT) [2, 10]: 37.83 ± 5.09 mmol·h/L
insulin AUEC0-t (OGTT) [2, 10]: 1008.62 ± 367.20
intensity of drug-related adverse events ([3]; cetagliptin 50 or 100 mg, sitagliptin 100 mg, 14 days): mild
number of drug-related AEs [3, 11]: 3 AEs
number of subjects reporting drug-related AEs [3, 11]: 2 subjects
serious AEs or withdrawals due to AEs ([3]; once daily for 14 days): no serious AEs or withdraws due to AEs
AUC0-τ (steady state) ([4]; 50 mg): 1440 ng·h/mL
Cmax (steady state) ([4]; 50 mg): 125 ng/mL
RAUC ([4]; 50 mg): 1.72
Tmax (steady state) ([4]; 50 mg): 1.5 h
t1/2 (steady state) ([4]; 50 mg): 38.8 h
AUC0-τ (steady state) ([4]; 100 mg): 3120 ng·h/mL
Cmax (steady state) ([4]; 100 mg): 294 ng/mL
RAUC ([4]; 100 mg): 1.38
Tmax (steady state) ([4]; 100 mg): 1.0 h
t1/2 (steady state) ([4]; 100 mg): 36.6 h
inhibition of serum DPP-4 activity [5]: ≥ 80%
accumulation ratios of Rmax and AUEC0-24 h for plasma active GLP-1 ([6]; 50 mg): about 1.0
accumulation ratios of Rmax and AUEC0-24 h for plasma active GLP-1 ([6]; 100 mg): about 1.0
